Reference: a melting point compilation (Tetko et al.; mined from patent text by program, amines drawn as free bases though some values may be those of a salt)

| SMILES | melting point |
| --- | --- |
| O=c1[nH]c2ncc(-c3ccc(O)nc3)nc2n1CC1CCCCC1 | > 400 °C |
| Nc1ccsc1-c1nc(C2CC2)no1 | 51 to 54 °C |
| CC(C)(C)OC(=O)N1CCN(c2cccc3cc(N)cnc23)CC1 | 168 to 173 °C |
| CCC(=O)c1c(C#N)nn(-c2c(Cl)cc(C(F)(F)F)cc2Cl)c1N | 167 to 169 °C |
| CC(C)Oc1ccc(-c2nn([C@@H](C)c3oc4ccc(F)cc4c(=O)c3-c3cccc(F)c3)c3ncnc(N)c23)cc1F | 139 to 142 °C |
| CN(C)C(=O)OC1c2nccnc2C(=O)N1c1ccc2ccc(Cl)nc2n1 (stereo not given) | 270 °C |
| CCN1C(=O)C(C)(C)C(=O)N(C)c2cc(CN(CCn3cc(C)c4occc4c3=O)Cc3scnc3C)ccc21 | 134 to 136 °C |
| Cc1cc(-c2nnn[nH]2)cc2c(=O)c3cccnc3oc12 | 290 to 291 °C |
| Cn1c(N)c2ncn(C3OC(CO)C(O)C3O)c2nc1=O (stereo not given) | 262 to 263 °C |
| NNc1ccc(Cl)cc1F | 57 to 63 °C |
| N#Cc1ccncc1OC1SCC(O)C(O)C1O (stereo not given) | 157 °C |
| CCOC(=O)c1nn(CC)c2nccc(O)c12 | 85 to 87 °C |
| Cc1cccc(C)c1C(=O)c1nc[nH]c1C | 179 to 181 °C |
| Fc1c(F)c(F)c(CSc2nc3ccccc3s2)c(F)c1F | 51 to 53 °C |
| CC(C)NCC1(O)COc2ccc(O)cc2OC1 (stereo not given) | 108 to 110 °C |
| CCC(Oc1cncc(Cl)c1)C(=O)O (stereo not given) | 98 to 101 °C |
| NS(=O)(=O)c1cc2c(s1)S(=O)(=O)N(CCN1CCOCC1)N=C2 | 164 to 166 °C |
| O=C1NC(N2CCCCCC2)=N/C1=C\c1c[nH]c2ncc(Cl)cc12 | 310 to 320 °C |
| CC(C)(Sc1cc(C(C)(C)C)c(O)c(C(C)(C)C)c1)Sc1cc(C(C)(C)C)c(OCCO)c(C(C)(C)C)c1 | 146 to 147 °C |
| COC(=O)c1nc(Cl)c(F)c(N)c1SC | 75 to 77 °C |
| Nc1nc(N)nc(-c2cccc(S(N)(=O)=O)c2)n1 | > 290 °C |
| CC(=O)C1CCC2C3CCC4CC(O)C(N5CCOC(C)(C)C5)CC4(C)C3C(=O)CC12C (stereo not given) | 163 °C |
| COc1nc(N)nc(OC(F)(F)F)n1 | 69 to 91 °C |
| Cn1nnnc1SCCCSc1ncccc1O | 87.5 to 88.5 °C |
| c1ccc(C2(n3ccnc3)c3ccccc3C(c3ccccc3)(n3ccnc3)c3ccccc32)cc1 (stereo not given) | 258 to 260 °C |

| SMILES | melting point |
| --- | --- |
| CCCCN(CC(=O)c1ccc(OCc2ccccc2)c2[nH]c(C(=O)OCCN3CCOCC3)cc12)Cc1ccccc1 | 149 to 150 °C |
| CCOC(=O)c1cn(C2CC2)c2cc(NCCO)c(F)cc2c1=O | 228 to 230 °C |
| Cc1cc(-c2c[nH]c(N)n2)ccn1 | 226 to 228 °C |
| CCCc1c(OCCCOc2ccc(C(C)=O)c(OCCCC(=O)OCC)c2CCC)ccc(C(C)=O)c1O | 77 to 79 °C |
| O=C(CCl)COc1c(Cl)cc(Cl)cc1Cl | 55 °C |
| COC(=O)C(Oc1ccc(C23CC4CC(CC(C4)C2)C3)cc1)c1ccc(Oc2ccc(Cl)cc2)cc1 (stereo not given) | 148 to 150 °C |
| CCCc1nc2c(N)nc3cccnc3c2s1 | 135 to 136 °C |
| CCCCCCC(C)N(C(C)=O)c1ccc(I)cc1 (stereo not given) | 60 to 62 °C |
| N#CSCOc1cc(Cl)c(Cl)cc1Cl | 103 to 105 °C |
| CC=CC(=O)NCCc1ccc(S(=O)(=O)N2CCN(C3CCCCC3)C2=N)cc1 | 157 to 158 °C |
| CN(C)c1ccc(C=O)c(O)c1 | 77 to 78 °C |
| CNC(=O)N1N=C(c2ccc(N)cc2)c2cc3c(cc2CC1C)OCO3 (stereo not given) | 133 to 135 °C |
| Cn1ncc2c(=O)n3c(nc21)SC(C)(C)C3 | 188 °C |
| CC(C)=NOc1cc(Cl)ccc1C#N | 83 to 84 °C |
| N#CCSC(=S)SCc1ccc(Cl)cc1 | 41 to 43 °C |
| OC[C@H]1OC[C@@H](n2c(Br)nc3cc(Cl)c(Cl)cc32)[C@H](O)[C@@H]1O | 207 to 209 °C |
| COc1ccc(-c2sc3c(c2CN(C)Cc2ccccc2)c(=O)c(C=O)cn3Cc2ccccc2OC)cc1 | 181 to 185 °C |
| Cn1ncnc1COc1nn2c(-c3ccccc3F)nnc2cc1-c1cccc(F)c1 | 204 to 206 °C |
| COc1cc(C(F)(F)F)nc(S(C)(=O)=O)n1 | 88 to 90 °C |
| CCOC=Nc1c(S(=O)C(F)(F)F)c(C#N)nn1-c1c(Cl)cc(C(F)(F)F)cc1Cl (stereo not given) | 63 °C |
| COC1(c2ccc(C)cc2)CCC(=NO)CC1 (stereo not given) | 114 to 116 °C |
| Nc1cc2c(Nc3ccc4c(cnn4Cc4cccc(F)c4)c3)ncnc2cn1 | 241 to 244 °C |
| CCN(C)C(=O)Nc1cc(C(C)(C)C)on1 | 88.5 to 89.5 °C |
| CC(C)CC(SC1CCCCC1)c1c(O)cc(-c2ccccc2)oc1=O (stereo not given) | 210 to 212 °C |

Second part, the compound after the results:

| melting point | SMILES |
| --- | --- |
| 103 °C | CC(C)(C)C(=O)C(Oc1ccc(Cl)cc1)c1ccccc1 (stereo not given) |
| 74 to 76 °C | CCON=C(c1ccccc1COc1cc(C)ccc1C)c1ccnn1C |
| 246 to 248 °C | COC(=O)c1ccc(O)cc1NC(=O)c1cccc2ccccc12 |
| 206 °C | CCc1cc(-c2cc(-c3ccc(C(=O)O)cc3)ccc2OCCO)ccc1N(CC)CC |
| 153 to 156 °C | CCCCCCCCCCCc1[nH]c2cc(C(=O)O)ccc2c1C |
| 189 to 190 °C | N#CCC(=O)c1nn(-c2ccccc2)c2c1Cc1ccccc1-2 |
| 246 °C | O=C1c2cccc(Sc3ccccc3)c2C(=O)c2cccc(Nc3cccc([N+](=O)[O-])c3)c21 |
| > 50 °C | Cc1cc(NS(=O)(=O)c2ccccc2)cc(C)c1S(=O)C[N+](=O)[O-] (stereo not given) |
| 280 °C | O=C(NN=Cc1ccc(C(F)(F)F)c([N+](=O)[O-])c1)c1ccc(O)cc1 |
| 204 to 206 °C | COc1cccc(CNC(=O)c2nc3ccc(F)c(OCCc4ccc(NS(N)(=O)=O)cc4)c3c(=O)[nH]2)c1 |
| 196 to 197 °C | Cc1ccc(-c2ccc3c(c2)C=C(C(=O)Nc2ccc(CN4CCCCC4)cc2)CO3)cc1 |
| 140 to 141 °C | COc1ccc(-c2c(C)c3ccc(OC(C)=O)c(O)c3oc2=O)c(OC)c1 |
| 124 °C | COc1cccc(-c2ccc3c(C(=O)Nc4onc(C)c4C)c(OC)ccc3c2)c1 |
| 140 to 141 °C | COc1ccc(NC(=O)Nc2ccc(C(=O)O)cc2)cc1C12CC3CC(CC(C3)C1)C2 |
| 160 to 161 °C | O=S(=O)(Nc1nccnc1OCc1ccc(CO)cc1)c1cccc(Cl)c1Cl |
| 225 to 228 °C | N#Cc1cnn(-c2ncc(C(F)(F)F)cc2Cl)c1C=CC(=O)O |
| 86 to 87 °C | C=C1C(=O)c2ccccc2OC1c1ccc(Cl)cc1Cl (stereo not given) |
| 181 to 182 °C | Cc1c(-c2ccccc2)oc2c(C(=O)NCCCl)cccc2c1=O |
| 148 to 150 °C | COCCOc1nc2cc(-c3ccc(OC)cc3)nnc2c2ccccc12 |
| 131 to 132 °C | CCCCc1nc2cccc(C(=O)OC)c2n1Cc1ccc(-n2c(C)ccc2C#N)cc1 |
| > 300 °C | O=C(O)c1c2c(nc3ccc(F)cc13)-c1ccc(-c3ccccc3F)cc1CCCC2 |
| 186 to 187 °C | CC(=O)c1ccc(N2CCN(Cc3cn4cc(Cl)ccc4n3)CC2)cc1 |
| 198 °C | COc1ccc(C(=O)Nc2c(Cl)cncc2Cl)cc1SC1CCCC1 |
| 102 to 104 °C | Cc1cc(N)ccc1C(O)c1ccccn1 (stereo not given) |
| > 276 °C | CNC(=O)c1ccc2cc(C(=O)O)ccc2c1 |
| 289 to 293 °C | O=c1[nH]c2ccc(Cl)cc2c(=O)c2ccccc12 |

| melting point | SMILES |
| --- | --- |
| 190 to 195 °C | CC(C)(C)OC(=O)c1ccc(C=Cc2cnc(N)c(C#N)c2)cc1 |
| 183 °C | CS(=O)(=O)c1ccc(/C(=C2\CCSC2=O)c2ccc(Cl)cc2)cc1 |
| 206 to 208 °C | COc1ccc2c(c1)C(C#Cc1ccccc1)(C(F)(F)F)NC(=O)N2 (racemic) |
| 118 to 119 °C | O=C1N(CO)CCN1CCN1CCC(c2cn(-c3ccc(F)cc3)c3ccc(Cl)cc23)CC1 |
| 88 to 92 °C | COc1cccc(C(O)(c2nccs2)C(F)(F)F)c1 (stereo not given) |
| 111 to 112 °C | CN(C)CCn1c(=O)c2ccc([N+](=O)[O-])cc2c2cnc3cc4c(cc3c21)OCO4 |
| 123 to 135 °C | Cc1cccc(-c2[nH]c(C(C)C)nc2-c2cccc(-c3ccc(NC(=O)C(C)(C)O)cc3)c2)n1 |
| 121 to 122 °C | Cc1oc(-c2ccccc2)nc1COc1ccc(Sc2nc(-c3ccccc3)c(CCC(=O)O)s2)cc1 |
| 184 to 185 °C | CCOC(=O)c1ccc2nc3n(c(=O)c2c1)CCC3=Cc1ccccc1C |
| 279 °C | N#Cc1cccc(Cl)c1-c1[nH]c(=O)c(-c2ccccc2)cc1C(=O)O |
| 150 to 151 °C | O=C(O)[C@H](Cc1ccc(CC(F)(F)C(F)(F)F)cc1)[C@@H](O)c1cccc(Cl)c1 (racemic) |
| 86 to 88 °C | O=C(NCCSCc1ccccc1)c1cnccc1C(F)(F)F |
| 127 to 128 °C | Cc1ccc(-c2ncncc2C#N)cc1 |
| 226 to 230 °C | Cc1nc2cnccc2n1-c1ccc(CC(=O)O)cc1 |
| 238 to 241 °C | CNC(=O)C(Cc1ccc(Br)cc1)NC(=O)Nc1n[nH]c(=S)s1 (stereo not given) |
| 104 °C | COc1ccc(/C=C/C(=O)/C=C/C(=O)O)cc1 |
| 288 to 294 °C | CNC(=O)c1ccc(N2CCN(Cc3cnc4c(c3)[nH]c(=O)n3cccc43)CC2)c(F)c1 |
| 112 to 115 °C | Cn1nc(-c2c(Cl)cccc2Cl)nc1Cc1ccc(Cl)cc1 |
| 192 to 194 °C | CS(=O)(=O)c1ccc(-c2nn(CC#N)c(C(F)(F)F)c2-c2ccc(F)cc2)cc1 |
| 157 to 158 °C | NC(=O)N(O)CC=Cc1ccc(-c2ccccc2)o1 |
| 161 to 162 °C | COc1ccccc1Oc1c(NS(=O)(=O)c2ccc(C(C)(C)C)cc2)nc(CO)nc1OCCOc1ncc(Br)cn1 |
| 94 to 96 °C | C#Cc1cccc(NC(C)=O)c1 |
| 99 to 101 °C | Cc1ccc(S(=O)(=O)N[C@H](COS(=O)(=O)c2ccc(C)cc2)CC(C)C)cc1 |
| 145 to 147 °C | Cc1c(-c2ccccc2)oc2c(CO)cccc2c1=O |
| > 310 °C | O=C1NC(=O)c2c1cc1ccc3c(c1c2-c1ccc(F)cc1)OCC3 |
